What was measured:
Type in all cases: in vivo
[1] = system: spring wheat; experiment: Field trial: grain yield of spring wheat, postemergence treatment with MPR + epoxiconazole; conditions: EPC 125, MPR + EPC 100 + 125 g ai/ha
Text: (§1) The applications have been done with seed treatment, pre- or post-emergence treatments straight (alone, 1 application) or sequential treatments e.g. seed treatment followed by pre-emergence and/or post-emergence spray applications. The pre- or post-emergence applications were made with spray applications using 100-300 l/water per hectare. The growth stage of the crops species at the time of application are reported in the result tables. The dose rates of the herbicidal active ingredients applied alone respective in sequential application are also described in the result tables. The assessments have been done via visual ratings (0-100% scale) or counting. The trials have been harvested after crops reached the full maturity. After the harvest the total weight of kernels/seeds/beets per plot was measured. The results are reported as means over 2-4 replications. The time between applications and assessments or countings/harvest are described in the result tables as well.

[2] = system: spring oilseed rape (canola); experiment: Field trial: grain yield of spring oilseed rape (canola), postemergence treatment with MPR + tebuconazole; conditions: TBC 150, MPR + TBC 100 + 150 g ai/ha
Text: as §1

[3] = system: winter wheat; experiment: Field trial: grain yield of winter wheat, postemergence treatment with mefenpyr-diethyl
Text: (§2) The trials have been carried out under natural field conditions (plot trials, 10 square meter plots, 2-4 replications).
(§3) The applications have been done with seed treatment, pre- or post-emergence treatments straight (alone, 1 application) or sequential treatments e.g. seed treatment followed by pre-emergence and/or post-emergence spray applications. The pre- or post-emergence applications were made with spray applications using 100-300 l/water per hectare. The growth stage of the crops species at the time of application are reported in the result tables. The dose rates of the herbicidal active ingredients applied alone respective in sequential application are also described in the result tables.
(§4) The assessments have been done via visual ratings (0-100% scale) or counting. The trials have been harvested after crops reached the full maturity. After the harvest the total weight of kernels/seeds/beets per plot was measured. The results are reported as means over 2-4 replications. The time between applications and assessments or countings/harvest are described in the result tables as well.

[4] = system: spring wheat; experiment: Field trial: grain yield of spring wheat, postemergence treatment with mefenpyr-diethyl
Text: as §2, §3, §4

[5] = system: durum wheat; experiment: Field trial: grain yield of durum wheat, seed treatment with mefenpyr-diethyl
Text: as §2, §3, §4
(§5) The active ingredients have been applied to the untreated, dry seeds together with a carrier. After a short period of time to let the seeds dry, they were ready to be sown in the pot or field using standard equipments.

[6] = system: winter wheat; experiment: Field trial: emergence (number of plants) of winter wheat, pre-emergence application of mefenpyr-diethyl; conditions: 11 days after application
Text: as §2, §3, §4

[7] = system: winter barley; experiment: Field trial: grain yield of winter barley, sequential application of MPR; conditions: 0.5 g ai/kg seed fb 4 × 50 g ai/ha post
Text: as §2, §3, §4, §5

[8] = system: winter oilseed rape (canola); experiment: Field trial: grain yield of winter oilseed rape (canola), sequential application of mefenpyr-diethyl; conditions: 3 g ai/kg seed fb 3 × 50 g ai/ha post
Text: as §2, §3, §4, §5

[9] = system: sugarbeet; experiment: Field trial: beet yield of sugarbeet, sequential application of mefenpyr-diethyl; conditions: 0.015 mg ai/seed fb 3 × 50 g ai/ha post
Text: as §2, §3, §4, §5

[10] = system: sugarbeets; experiment: Field trial: emergence of sugarbeets, seed treatment with MPR; conditions: seed treatment 0.015 mg ai/seed, 28 days after planting
Text: as §2, §3, §4, §5

[11] = system: sugarbeets; experiment: Field trial: sugar yield of sugarbeets, sequential application of mefenpyr-diethyl; conditions: 0.015 mg ai/seed fb 3 × 50 g ai/ha post
Text: as §2, §3, §4, §5

[12] = grain yield relative to UTC = 100%

`Fc1ccc([C@]2(Cn3cncn3)O[C@H]2c2ccccc2Cl)cc1` (racemic) [EPC, epoxiconazole] was tested, and the Relative % [1, 12] was 109.7%, the “Difference (%) vs. UTC” value ([1]; grain yield) was “+9.7%” and the “Yield (grain yield at harvest)” value ([1]; spring wheat, post-emergence spring, flag leaf sheath opening, harvest 55 days after application, UTC 1.84) was 2.02 t/ha.

In the case of `CC(C)(C)C(O)(CCc1ccc(Cl)cc1)Cn1cncn1` (stereo not drawn) [TBC, tebuconazole], the Relative % [2, 12] is reported as 102%, the “Difference (%) vs. UTC” value ([2]; grain yield) is reported as “+2%” and the “Yield (grain yield at harvest)” value ([2]; spring oilseed rape, post-emergence spring, beginning of flowering, harvest 92 days after application, UTC 3.91) is reported as 3.98 t/ha.

With `CCOC(=O)C1=NN(c2ccc(Cl)cc2Cl)C(C)(C(=O)OCC)C1` (stereo not drawn) [MPR, ethyl 1-(2,4-dichlorophenyl)-5-(ethoxycarbonyl)-5-methyl-2-pyrazoline-3-carboxylate] the Relative % ([3]; grain yield relative to UTC = 100%, 100 g ai/ha post-emergence, 84 days after application) was 106.3%, the “Difference (%) vs. UTC” value ([3]; grain yield, 100 g ai/ha post-emergence, 84 days after application) was “+6.3%” and the “Yield (grain yield at harvest)” value ([3]; winter wheat, 100 g ai/ha post-emergence spring, beginning of stem elongation, harvest 84 days after application, UTC 9.52) was 10.12 t/ha. For the same compound, the Relative % ([4]; grain yield relative to UTC = 100%, 100 g ai/ha post-emergence, 72 days after application) was 119.2%, the “Difference (%) vs. UTC” value ([4]; grain yield, 100 g ai/ha post-emergence, 72 days after application) was “+19.2%” and the “Yield (grain yield at harvest)” value ([4]; spring wheat, 100 g ai/ha post-emergence spring, flag leaf/beginning of ear heading, harvest 72 days after application, UTC 6.06) was 7.16 t/ha. For the same compound, the “Yield (grain yield at harvest)” value ([5]; durum wheat, seed treatment 0.5 g ai/kg seed prior planting, harvest 158 days after application, UTC 4.45) was 4.97 t/ha, the Relative % ([5]; grain yield relative to UTC = 100%, seed treatment 0.5 g ai/kg seed) was 111.7% and the “Difference (%) vs. UTC” value ([5]; grain yield, seed treatment 0.5 g ai/kg seed) was “+11.7%”. For the same compound, the Relative % ([6]; number of plants relative to UTC = 100%, pre-emergence, dose 100) was 107.4%, the “Difference (%) vs. UTC” value ([6]; number of plants, pre-emergence, dose 100) was “+7.4%” and the “Yield [plants/row meter] (number of plants, increased emergence)” value ([6]; winter wheat, pre-emergence treatment, dose 100 g ai/ha, UTC 34.2) was 36.8 plants/row meter. The Relative [7, 12] was 104%, the “Difference (%) vs. UTC” value ([7]; grain yield) was “+4%” and the “Yield (grain yield at harvest)” value ([7]; winter barley, harvest 74 days after the last application, UTC 10.01) was 10.45 t/ha. For the same compound, the Relative [8, 12] was 107%, the “Difference (%) vs. UTC” value ([8]; grain yield) was “+7%” and the “Yield (grain yield at harvest)” value ([8]; winter oilseed rape, harvest 102 days after the last application, UTC 3.60) was 3.85 t/ha. The Relative ([9]; beet yield relative to UTC = 100%) was 108.1%, the “Difference (%) vs. UTC” value ([9]; beet yield) was “+8.1%” and the “Yield (yield of beets by weight at harvest)” value ([9]; sugarbeet, harvest 162 days after last application, UTC 58.7) was 63.5 t/ha. For the same compound, the Relative ([10]; emerged plants relative to UTC = 100%) was 109.2%, the “Difference (%) vs. UTC” value ([10]; emerged plants) was “+9.2%” and the “plants/18 row meters (emergence, counting)” value ([10]; sugarbeets, UTC 65) was 71 plants/18 row meters. For the same compound, the Relative ([11]; sugar yield relative to UTC = 100%) was 106.1%, the “Difference (%) vs. UTC” value ([11]; sugar yield) was “+6.1%” and the “Sugar Yield (by weight at harvest)” value ([11]; sugarbeets, harvest 162 days after the last application, UTC 5.70) was 6.05 t/ha.
